According to a melting point compilation (Tetko et al.; mined from patent text by program, amines drawn as free bases though some values may be those of a salt):

Q: Which melting point does the source give for O=C(CC1C2CC3CC(C2)CC1C3)Nc1cccc2[nH]ccc12 (stereo unspecified) here?
A: 206 to 208 °C

Q: With O=C1C(=Cc2ccc([N+](=O)[O-])cc2)CCc2cc(OCCn3ccnc3)ccc21 as the compound, how does the melting point read?
A: 184 to 185 °C

Q: Which melting point does the source give for COc1ccc(CC(=O)NC(NC(=NC#N)Nc2cccnc2OC)C(C)(C)C)cc1OC (stereo unspecified) here?
A: 146 to 147 °C

Q: Which melting point does the source give for O=[N+]([O-])c1ccc2c(c1)CN(Cc1ccccc1)C2 here?
A: 80.5 to 81 °C

Q: Which melting point does the source give for CCCCCCC(C(=O)Nc1ccccc1O)n1cnc(NC(=O)c2ccccc2S(=O)(=O)O)c1 (stereo unspecified) here?
A: 138 to 147 °C

Q: Which melting point does the source give for CN(C)c1cc(F)c(S(=O)(=O)N(C)C)cc1-n1c(=O)cc(C(F)(F)F)n(C)c1=O here?
A: 185 to 194 °C

Q: For N#Cc1nn(-c2c(Cl)cc(C(F)(F)F)cc2Cl)c(N2CCCC2)c1S(=O)(=O)C(F)(F)F, which melting point is on record?
A: 187 to 189 °C

Q: Which melting point does the source give for O=C1CCCCCC1C(c1ccc(Cl)cc1)[N+](=O)[O-] (racemic) here?
A: 77 to 78 °C

Q: For CCOC(=O)NCCc1cccc(C(=O)C=CN(C)C)c1, which melting point is on record?
A: 45 to 50 °C

Q: Which melting point does the source give for CCCOc1ccc(S(=O)(=O)C(C)C)cc1C(N)=O here?
A: 177 to 178 °C

Q: For Cn1c(=O)sc2cc(N)ccc21, which melting point is on record?
A: 188 to 190 °C

Q: Which melting point does the source give for CCn1nc(C)c2c(NCc3ccccc3)c3ccccc3nc21 here?
A: 228 to 231 °C

Q: With Cc1cccc2c1nc(-c1c(F)cccc1F)n2Cc1cccnc1 as the compound, how does the melting point read?
A: 131 to 132 °C

Q: With CCOC(=O)C=CC=Cc1ccc(OC)c(C)c1C as the compound, how does the melting point read?
A: 92 to 95 °C

Q: For O=c1[nH]c2[nH]c3ccc(Cl)cc3c2c2c(F)cccc12, which melting point is on record?
A: > 300 °C

Q: Which melting point does the source give for COc1cc(OC)nc(C2(C#N)OC(=O)c3c(-c4cccs4)ccnc32)n1 (stereo unspecified) here?
A: 187 to 188 °C

Q: For CCCCOC(C(=O)Oc1ccc(C(=O)O)cc1)c1ccc2c(c1)C(C)(C)CCC2(C)C (racemic), which melting point is on record?
A: 129 to 130 °C

Q: For CC1(C)CCCc2cc(CC#Cc3ccc(C(=O)O)c(O)c3)ccc21, which melting point is on record?
A: 152 to 153 °C

Q: With CCOC(=O)Nc1cc(-c2cccc3ccccc23)c2nc(C(=O)O)ccc2c1 as the compound, how does the melting point read?
A: 205 to 208 °C

Q: With Cc1ccc(S(=O)(=O)Nc2ccccc(=O)c2O)cc1 as the compound, how does the melting point read?
A: 177 to 179 °C

Q: For CC(=O)Nc1ccc(CC2CCN(CCS(=O)c3ccc4[nH]c(=O)oc4c3)CC2)cc1 (stereo unspecified), which melting point is on record?
A: 104 to 105 °C

Q: Which melting point does the source give for CC(=O)C=Cc1ccc(Cl)c(Cl)c1 here?
A: 53 to 55 °C

Q: For CC(=O)OC1CC(C)(C)C(OC(=O)c2ccccc2)C(O)C=C1C (stereo unspecified), which melting point is on record?
A: 113 to 114 °C

Q: Which melting point does the source give for CC(=O)OC1CSC(Oc2ccc3cc[nH]c3c2)C(OC(C)=O)C1OC(C)=O (stereo unspecified) here?
A: 172 to 175 °C

Q: With NC(=O)c1c(OCc2c(F)cc(Br)cc2F)nsc1NC(=O)NCCCCN1CCCC1 as the compound, how does the melting point read?
A: 208 °C

Q: Which melting point does the source give for OC(c1ccc2cc(-c3n[nH]c4ccsc34)[nH]c2c1)(C1CC1)C1CC1 here?
A: 110 to 112 °C

Q: For CC(C)c1cc(O)c2c(c1)OC(C)(C)C1=C2CN(CC(=O)NC(N)=O)CC1, which melting point is on record?
A: 164 to 166 °C

Q: With CS(=O)(=O)Nc1c(O)ccc2c1CCCC2C1=NCCN1 (stereo unspecified) as the compound, how does the melting point read?
A: 263 to 265 °C

Q: With O=C(NCCCC1OCC(c2cccc3ccccc23)CO1)C(F)(F)F (stereo unspecified) as the compound, how does the melting point read?
A: 83 to 84 °C

Q: Which melting point does the source give for COc1cccc(N2CC(=O)N(c3ccc(S(N)(=O)=O)cc3Cl)C2)c1 here?
A: 200 to 203 °C

Q: Which melting point does the source give for COc1ccc(N2C(=O)[C@H](O[Si](C(C)C)(C(C)C)C(C)C)[C@@H]2CC(C)C)cc1 here?
A: 59 to 60 °C

Q: With CCOC(=O)C1=C(C)NC(=NC#N)NC1c1cccc([N+](=O)[O-])c1 (stereo unspecified) as the compound, how does the melting point read?
A: 250 to 252 °C

Q: Which melting point does the source give for c1ccc(C(CCN2CC3=C(C2)c2cccc4cccc3c24)(c2ccccc2)c2ccccc2)cc1 here?
A: 159 to 168 °C

Q: Which melting point does the source give for O=[N+]([O-])N=C1NCCN1Cc1cc(Br)no1 here?
A: 149 °C

Q: Which melting point does the source give for COC(=O)CCc1cc2c(s1)NC(=S)C(C)N=C2c1ccccc1Cl (stereo unspecified) here?
A: 198 to 200 °C

Q: With CC(C)(C)OC(=O)NCC1CCc2cc(C=O)ccc2C1 (stereo unspecified) as the compound, how does the melting point read?
A: 115 °C

Q: With C1CCCCN2CCOCCOCCN(CCC1)CCOCCOCC2 as the compound, how does the melting point read?
A: 90 to 91 °C

Q: With CN(C)Cc1nnc(CN(C)C)n1-c1ccc(Cl)cc1C(=O)c1ccccc1 as the compound, how does the melting point read?
A: 148 to 152 °C

Q: Which melting point does the source give for CCCn1nnn(-c2cc(OC(C)C)c(F)cc2F)c1=O here?
A: 76.5 to 77 °C

Q: With COC(=O)CN1CSC=C(N2C(=O)c3ccccc3C2=O)C1=O as the compound, how does the melting point read?
A: 181 to 183 °C

Q: Which melting point does the source give for C#CC1(Oc2ccc(F)cc2N)CCN(C(=O)Oc2ccccc2)CC1 here?
A: 125 to 127 °C

Q: Which melting point does the source give for CC(C)(NC1=NS(=O)(=O)c2sc(Cl)cc2N1)c1ccccc1 here?
A: 360 °C

Q: With N#Cc1ccc(-c2ccc(C#N)c(Cn3cncn3)c2)cc1 as the compound, how does the melting point read?
A: 222 to 223 °C

Q: With CN1CCc2ccc(C(=O)CCC(=O)N3CCC(c4ccc(Cl)cc4)CC3)cc2CC1 as the compound, how does the melting point read?
A: 143 to 145 °C

Q: For CC1(C)CC(=O)c2c(SCc3ccco3)sc(-c3cc[nH]n3)c2C1, which melting point is on record?
A: 198 to 200 °C

Q: With N#Cc1ccc(N2CCN(Cc3cnc4c(c3)NC(=O)[C@@H]3CCCN43)CC2)nc1 as the compound, how does the melting point read?
A: 252 to 256 °C

Q: With O=Cc1cc(-c2ccccc2)no1 as the compound, how does the melting point read?
A: 67 to 69 °C

Q: Which melting point does the source give for S=c1ncc2ccccc2[nH]1 here?
A: 234 to 235 °C

Q: For CCNC(=S)N(CC)c1ccc(Cl)nc1, which melting point is on record?
A: 84 to 86 °C

Q: For COc1ccc(-c2csc(N)n2)cc1, which melting point is on record?
A: 194 to 205 °C

Q: Which melting point does the source give for Cc1nc2ccccn2c(=O)c1CCN1CCN(C(=NNc2ccccc2)c2ccccc2F)CC1 here?
A: 180 °C
